Experimental data as given in patent publication US8604065B2, “Pyridyl cyanoguanidine derivatives” (priority 2010, dated 2013).

How the values were obtained:
Type in all cases: cell-based
human B lymphoma BA25 = assay: growth inhibition on BA25 in vitro (MTT); settings: BA25 cells, 72 h
Protocol: (§1) Human pancreatic cancer AsPC-1; human acute lymphocytic leukemia taxol-resistant cell strain CCRF-CEM/T; human adenocarcinoma of lung NCI-H1975; human pharyngeal squamous cell carcinoma Fadu; human B lymphoma BA25; human B lymphoma BA91; human B lymphoma BA127; human stomach cancer NCI-N87; human non-small cell lung cancer A549; human liver cancer SK-Hep-1; human lung cancer NCI-H460; human prostate cancer PC-3.
(§2) The cells were cultured under the following conditions:
(§3) complete medium: 90% RPMI1640, 10% FBS; 37° C., 5% CO2, saturated humidity.
(§4) After cultured to the end of the logarithmic growth phase, the cells were diluted with the complete medium to the required concentration.
(§5) The cells were seeded in a 96-well microplate at a suitable concentration (CCRF-CEM/T: 20000 cells/well; BA25: 20000 cells/well; BA91: 60000 cells/well; BA127: 60000 cells/well).
(§6) A 2 mM stock solution was prepared by dissolving test compounds in DMSO, diluted with a base medium (without serum) to form a 20 μM or 2 μM 10× working solution which was diluted using a gradient of 1/3. During dilution, the concentration of DMSO was kept consistent. There were 8 dose groups in total. 12 μl of 10× compound working solution was added to the experimental well until the final volume of each well was 120 μl and the concentration of DMSO was 1‰. Meanwhile, a solvent control group without compounds (PC) and a solvent control group without cells and compounds (NC) were prepared. The cells were further cultured for 72 h.
(§7) Subsequently, the activity of cells was measured with a microculture tetrozolium (MTT method). Specifically, 30 μl/well of PBS containing 2.5 mg/ml MTT was added, and then the cells were cultured for another 3 h. 100 μl/well of triple lysis buffer (10% SDS, 5% isobutanol, 0.012 M HCl) was added, and the mixture was kept at room temperature to dissolve MTT crystal. OD value at 570 nm was measured with an ELISA analyzer.
(§8) Inhibition rate of a compound was calculated as follows:
(§9) Inhibition rate=[1−(OD value of administration group−OD value of NC)/(OD value of PC−OD value of NC)]×100%
(§10) Inhibition rates were then plotted versus the logarithm of compound concentrations, and fitted with Logistic 4 parameter equation. The compound concentration corresponding to 50% inhibition rate in the curve was IC50 value.

[1] = test system: Human pancreatic cancer AsPC-1; assay: growth inhibition on AsPC-1 in vitro (MTT); settings: ASPC1, Aspc-1 cells, 72 h
Protocol: as §1
(§11) The following cells were cultured under the following conditions, respectively:
(§12) 37° C., 5% CO2, saturated humidity.
(§13) The cells were cultured until confluence, digested with a pancreatic enzyme, and prepared into a single cell suspension in a complete medium.
(§14) The cells were seeded in a 96-well microplate at a suitable concentration (AsPC-1: 8000 cells/well; NCI-H1975: 5000 cells/well; Fadu: 6000 cells/well; NCI-N87: 15000 cells/well), cultured overnight to render them adherent to the bottom.
as §6, with “in total. 20 μl of” for “in total. 12 μl of”, “well was 200 μl and” for “well was 120 μl and”, “control group (PC) without compounds” for “control group without compounds”
(§15) Subsequently, the activity of cells was measured with a microculture tetrozolium (MTT method). Specifically, the medium in well was sucked out, a base medium containing 0.5 mg/ml MTT was added in an amount of 100 μl/well, and then the cell was further cultured for 3 h. The medium containing MTT was once again sucked out, 100 μl/well of DMSO was added to dissolve MTT crystal, and OD value at 490 nm was measured with an ELISA analyzer.
(§16) Inhibition rate of a compound was calculated as follows: Inhibition rate=[1−(OD value of administration group−OD value of NC)/(OD value of PC−OD value of NC)]×100%
as §10

[2] = test system: human acute lymphocytic leukemia taxol-resistant cell strain CCRF-CEM/T; assay: growth inhibition on CCRF-CEM/T in vitro (MTT); settings: CCRF-CEM-T cells, 72 h
Protocol: as §1, §2, §3, §4, §5, §6, §7, §8, §9, §10

[3] = test system: human pharyngeal squamous cell carcinoma Fadu; assay: growth inhibition on FaDu in vitro (MTT); settings: FaDu cells, 72 h
Protocol: as §1, §11, §12, §13, §14
as §6, with “in total. 20 μl of” for “in total. 12 μl of”, “well was 200 μl and” for “well was 120 μl and”, “control group (PC) without compounds” for “control group without compounds”
as §15, §16, §10

human B lymphoma BA127 = assay: growth inhibition on BA127 in vitro (MTT); settings: BA127 cells, 72 h
Protocol: as §1, §2, §3, §4, §5, §6, §7, §8, §9, §10

human B lymphoma BA91 = assay: growth inhibition on BA91 in vitro (MTT); settings: BA91 cells, 72 h
Protocol: as §1, §2, §3, §4, §5, §6, §7, §8, §9, §10

[4] = test system: human adenocarcinoma of lung NCI-H1975; assay: growth inhibition on NCI-H1975 in vitro (MTT); settings: NCI-H1975 cells, 72 h, read-out: growth inhibition effects IC50 (nM) NCI-H1975
Protocol: as §1, §11, §12, §13, §14
as §6, with “in total. 20 μl of” for “in total. 12 μl of”, “well was 200 μl and” for “well was 120 μl and”, “control group (PC) without compounds” for “control group without compounds”
(§17) Subsequently, the activity of cells was measured with a microculture tetrozolium (MTT method). […] The medium containing MTT was once again sucked out, 100 μl/well of DMSO was added to dissolve MTT crystal, and OD value at 490 nm was measured with an ELISA analyzer.
(§18) Inhibition rate of a compound was calculated as follows: Inhibition rate=[1−(OD value of administration group−OD value of NC)/(OD value of PC−OD value of NC)]×100% […]

[5] = test system: human stomach cancer NCI-N87; assay: growth inhibition on NCI-N87 in vitro (MTT); settings: NCI-N87 cells, 72 h, read-out: growth inhibition effects IC50 (nM) NCI-N87
Protocol: as §1, §11, §12, §13, §14
as §6, with “in total. 20 μl of” for “in total. 12 μl of”, “well was 200 μl and” for “well was 120 μl and”, “control group (PC) without compounds” for “control group without compounds”
as §17, §18

[6] = test system: human non-small cell lung cancer A549; assay: growth inhibition on A549 in vitro; settings: A549 cells, read-out: growth inhibition effects IC50 (nM) A549
Description: as §1

[7] = test system: human liver cancer SK-Hep-1; assay: growth inhibition on SK-Hep-1 in vitro; settings: SK-HEP1, SK-Hep-1 cells, read-out: growth inhibition effects IC50 (nM) SK-Hep-1
Description: as §1

[8] = test system: human lung cancer NCI-H460; assay: growth inhibition on NCI-H460 in vitro; settings: NCI-H460 cells, read-out: growth inhibition effects IC50 (nM) NCI-H460
Description: as §1

[9] = test system: human prostate cancer PC-3; assay: growth inhibition on PC-3 in vitro; settings: PC-3 cells, read-out: growth inhibition effects IC50 (nM) PC-3
Description: as §1

Structure (SMILES)	IC50 (human B lymphoma BA25)	IC50 [1]	IC50 [2]	IC50 [3]	IC50 (human B lymphoma BA127)	IC50 (human B lymphoma BA91)	IC50 [4]	IC50 [5]	IC50 [6]	IC50 [8]	IC50 [9]	IC50 [7]
N#C/N=C(\NCCCCCCOc1ccc(OC(F)(F)F)cc1)Nc1ccncc1 [Example 4, N-cyano-N′-(6-(p-trifluoromethoxyphenoxy)hexyl)-N″-(4-pyridyl) guanidine]	12 nM											
N#C/N=C(\NCCCCCCOc1ccc(Cl)cc1)Nc1ccncc1 [Control 2, N-cyano-N′-(6-(4-chlorophenoxy)hexyl)-N″-(4-pyridyl) guanidine]		19 nM	22 nM	11.7 nM			54 nM	14 nM	22 nM	83 nM	2.5 nM	16 nM
N#C/N=C(\NCCCCCCOc1ccccc1Cl)Nc1ccncc1 [Control 3, N-cyano-N′-(6-(2-chlorophenoxy)hexyl)-N″-(4-pyridyl) guanidine, reference compound]		7.2 nM	6.3 nM									
N#C/N=C(\NCCCCCCCCOc1ccccc1OC(F)(F)F)Nc1ccncc1 [Example 6, N-cyano-N′-(8-(o-trifluoromethoxyphenoxy)octyl)-N″-(4-pyridyl) guanidine]	5.6 nM				9.3 nM	9.6 nM						
COc1ccccc1OCCCCCN/C(=N\C#N)Nc1ccncc1 [Control 1, N-cyano-N′-(5-(o-methoxyphenoxy)pentyl)-N″-(4-pyridyl) guanidine, reference compound]		135 nM	113 nM									
N#C/N=C(\NCCCCCCOc1ccccc1OC(F)(F)F)Nc1cccnc1 [Example 2, N-cyano-N′-(6-(o-trifluoromethoxyphenoxy)hexyl)-N″-(3-pyridyl) guanidine]	4.4 nM				4.3 nM	2.7 nM						
N#C/N=C(\NCCCCCOc1ccccc1OC(F)(F)F)Nc1ccncc1 [Example 5, N-cyano-N′-(5-(o-trifluoromethoxyphenoxy)pentyl)-N″-(4-pyridyl) guanidine]	7.3 nM				6.1 nM	6.9 nM						

The next lines start with results.

IC50 (human B lymphoma BA25)	IC50 [1]	IC50 [2]	IC50 [3]	IC50 (human B lymphoma BA127)	IC50 (human B lymphoma BA91)	IC50 [4]	IC50 [5]	IC50 [6]	IC50 [8]	IC50 [9]	Structure (SMILES)	IC50 [7]
1 nM	2.1 nM	1.6 nM	1.5 nM	1.5 nM	1.5 nM	5.3 nM	1.5 nM	3 nM	8 nM	0.2 nM	N#C/N=C(\NCCCCCCOc1ccccc1OC(F)(F)F)Nc1ccncc1 [Example 11, N-cyano-N′-(6-(o-trifluoromethoxyphenoxy)hexyl)-N″-(4-pyridyl) guanidine]	2.3 nM
6.3 nM		5.1 nM	4.7 nM	6.9 nM	5.8 nM						N#C/N=C(\NCCCCCCOc1ccc(Br)cc1OC(F)(F)F)Nc1ccncc1 [Example 7, N-cyano-N′-(6-(2-trifluoromethoxy-4-bromophenoxy)hexyl)-N″-(4-pyridyl)guanidine]	
	7.3 nM	6.9 nM				15.5 nM	6.6 nM	9.9 nM	38 nM	2.4 nM	COc1ccccc1OCCCCCCN/C(=N\C#N)Nc1ccncc1 [Control 4, N-cyano-N′-(6-(2-methoxyphenoxy)hexyl)-N″-(4-pyridyl) guanidine]	
		2.2 nM	1.2 nM	1.4 nM	2 nM						N#C/N=C(\NCCCCCCOc1cc(Cl)ccc1OC(F)F)Nc1ccncc1 [Example 1, N-cyano-N′-(6-(2-difluoromethoxy-5-chlorophenoxy)hexyl)-N″-(4-pyridyl) guanidine]	
			2.4 nM	13 nM	3.5 nM						CC(C)(C)c1ccc(OC(F)F)c(OCCCCCCN/C(=N\C#N)Nc2ccncc2)c1 [Example 10, N-cyano-N′-(6-(2-difluoromethoxy-5-tert-butylphenoxy)hexyl)-N″-(4-pyridyl)guanidine]	
	0.9 nM	2.2 nM	1.3 nM	1.3 nM	< 1 nM						Cc1ccc(OC(F)F)c(OCCCCCCN/C(=N\C#N)Nc2ccncc2)c1 [Example 16, N-cyano-N′-(6-(5-methyl-2-difluoromethoxyphenoxy)hexyl)-N″-(4-pyridyl)guanidine]	
	2.3 nM	2.3 nM	2.8 nM	3.2 nM	< 1 nM						N#C/N=C(\NCCCCCCOc1ccc(Cl)cc1OC(F)F)Nc1ccncc1 [Example 12, N-cyano-N′-(6-(2-difluoromethoxy-4-chlorophenoxy)hexyl)-N″-(4-pyridyl)guanidine]	
